Experimental data published in EPA's ToxRefDB 2.

Tests used:
rat [1] = settings: Carcinogenicity; other; Oral; Feed; dose end: 82 week; group: systemic; systemic / in life observation / clinical signs / fur (altered appearance) + systemic / in life observation / clinical signs / hunched …
dog = settings: Chronic toxicity, beagle, Oral, Feed, dose end: 54 week, group: systemic
rat [2] = settings: Combined chronic toxicity/carcinogenicity; sprague dawley; Oral; Feed; dose end: 104 week; group: systemic; systemic / in life observation / body weight / body weight gain + systemic / pathology microscopic / blood vessel / aneurysm + systemic / …
mouse [3] = settings: Carcinogenicity, other, Oral, Feed, dose end: 24 month, group: systemic
mouse [4] = settings: Combined chronic toxicity/carcinogenicity, other, Oral, Feed, dose end: 24 month, group: systemic
rat [5] = settings: Subchronic oral toxicity in rodents, sprague dawley, Feed, dose end: 90 day
rat [6] = settings: Prenatal developmental toxicity study, wistar, Oral, Gavage/Intubation, dose end: 16 GD
rat [7] = settings: Combined chronic toxicity/carcinogenicity, sprague dawley, Oral, Feed, dose end: 24 month, group: systemic
mouse [8] = settings: Subchronic oral toxicity in rodents, cd1, Feed, dose end: 13 week, group: systemic, systemic / hematology / hemoglobin (hgb) / hemoglobin (hgb) + systemic / hematology / mean corpuscular hemoglobin concentration (mchc) / …
mouse [9] = settings: Prenatal developmental toxicity study, cd1, Oral, Gavage/Intubation, dose end: 16 GD
rat [10] = settings: Developmental neurotoxicity study; other; Oral; Water; dose end: 20 PND; group: cannot be grouped; systemic / in life observation / body weight / body weight gain + systemic / in life observation / food consumption / food consumption + …
mouse [11] = settings: Developmental neurotoxicity study; cd1; Injection; Subcutaneous; dose end: 35 PND; group: cannot be grouped; developmental / developmental landmark / eye opening / eye opening + systemic / in life observation / clinical signs / [other] + systemic / …
[12] = systemic / in life observation / clinical signs / [other] + systemic / in life observation / body weight / body weight + systemic / in life …
[13] = systemic / in life observation / clinical signs / [other] + systemic / in life observation / body weight / body weight gain + systemic / in …
[14] = systemic / in life observation / mortality / mortality
[15] = systemic / pathology gross / urinary bladder / thickened
[16] = systemic / in life observation / mortality / mortality + systemic / in life observation / body weight / body weight gain
[17] = group: cholinesterase, cholinesterase / cholinesterase / cholinesterase / plasma cholinesterase (che)
[18] = group: systemic, systemic / hematology / mean corpuscular hemoglobin concentration (mchc) / mean corpuscular hemoglobin concentration (mchc) + systemic / …
[19] = group: systemic, systemic / pathology microscopic / kidney / pigmentation
[20] = group: developmental, developmental / developmental malformation / bone / fragmented + systemic / in life observation / clinical signs / reduced body size
[21] = group: maternal, systemic / in life observation / body weight / body weight gain + systemic / in life observation / clinical signs / convulsions + systemic…
[22] = systemic / in life observation / body weight / body weight gain + systemic / pathology gross / kidney / enlarged + systemic / pathology …
[23] = group: developmental, developmental / developmental malformation / bone / supernumerary + developmental / developmental malformation / general / hemorrhage + …
[24] = group: maternal, reproductive / reproductive performance / resorptions / resorptions + systemic / in life observation / clinical signs / abnormal movements…

O=S1OCC2C(CO1)C1(Cl)C(Cl)=C(Cl)C2(Cl)C1(Cl)Cl (stereo not given) [Endosulfan]
LEL (rat [1]): 11.2 mg/kg/day | LOAEL (rat [1]): > 22.2 mg/kg/day | NEL (rat [1]): < 11.2 mg/kg/day | NOAEL (rat [1]): ≥ 22.2 mg/kg/day | NEL (dog; [12]): 0.25 mg/kg/day | NOAEL (dog; [12]): 0.25 mg/kg/day | LEL (dog; [13]): 0.75 mg/kg/day | LOAEL (dog; [13]): 0.75 mg/kg/day | LEL (rat [2]): 2.9 mg/kg/day | LOAEL (rat [2]): 2.9 mg/kg/day | NEL (rat [2]): 0.6 mg/kg/day | NOAEL (rat [2]): 0.6 mg/kg/day | LOAEL (mouse [3]; [14]): 2.6 mg/kg/day | NOAEL (mouse [3]; systemic / in life observation / mortality / mortality + systemic / pathology gross / urinary bladder / thickened): 0.9 mg/kg/day | LEL (mouse [3]; [15]): 0.3 mg/kg/day | NEL (mouse [3]; [15]): < 0.3 mg/kg/day | NEL (mouse [4]; [14]): 0.9 mg/kg/day | LEL (mouse [4]; [16]): 2.7 mg/kg/day | LOAEL (mouse [4]; [16]): > 2.7 mg/kg/day | NOAEL (mouse [4]; [16]): ≥ 2.7 mg/kg/day | LEL (rat [5]; [17]): 18 mg/kg/day | LOAEL (rat [5]; [17]): > 18 mg/kg/day | NEL (rat [5]; [17]): 3 mg/kg/day | NOAEL (rat [5]; [17]): ≥ 18 mg/kg/day | LOAEL (rat [5]; [18]): 1.5 mg/kg/day | NOAEL (rat [5]; [18]): 0.5 mg/kg/day | LEL (rat [5]; [19]): 0.5 mg/kg/day | NEL (rat [5]; [19]): < 0.5 mg/kg/day | LEL (rat [6]; [20]): 6 mg/kg/day | LOAEL (rat [6]; [20]): 6 mg/kg/day | NEL (rat [6]; [20]): 2 mg/kg/day | NOAEL (rat [6]; [20]): 2 mg/kg/day | LEL (rat [6]; [21]): 6 mg/kg/day | LOAEL (rat [6]; [21]): 6 mg/kg/day | NEL (rat [6]; [21]): 2 mg/kg/day | NOAEL (rat [6]; [21]): 2 mg/kg/day | NEL (rat [7]; systemic / in life observation / body weight / body weight gain + systemic / pathology gross / kidney / enlarged): 0.75 mg/kg/day | LEL (rat [7]; [22]): 3.75 mg/kg/day | LOAEL (rat [7]; [22]): > 3.75 mg/kg/day | NOAEL (rat [7]; [22]): ≥ 3.75 mg/kg/day | LEL (mouse [8]): 0.27 mg/kg/day | LOAEL (mouse [8]): 0.27 mg/kg/day | NEL (mouse [8]): < 0.27 mg/kg/day | NOAEL (mouse [8]): < 0.27 mg/kg/day

CN1CCC[C@H]1c1cccnc1 [Nicotine]
LEL (mouse [9]; group: developmental, developmental / developmental malformation / bone / supernumerary): 12 mg/kg/day | LOAEL (mouse [9]; [23]): > 20 mg/kg/day | NEL (mouse [9]; [23]): 4 mg/kg/day | NOAEL (mouse [9]; [23]): ≥ 20 mg/kg/day | LEL (mouse [9]; [24]): 12 mg/kg/day | LOAEL (mouse [9]; [24]): > 20 mg/kg/day | NEL (mouse [9]; [24]): 4 mg/kg/day | NOAEL (mouse [9]; [24]): ≥ 20 mg/kg/day | LEL (rat [10]): 2.9 mg/kg/day | LOAEL (rat [10]): > 4.4 mg/kg/day | NEL (rat [10]): < 2.9 mg/kg/day | NOAEL (rat [10]): ≥ 4.4 mg/kg/day | LEL (mouse [11]): 0.5 mg/kg/day | LOAEL (mouse [11]): > 0.5 mg/kg/day | NEL (mouse [11]): < 0.5 mg/kg/day | NOAEL (mouse [11]): ≥ 0.5 mg/kg/day
